Data from patent US20140301961A1, “COMPOUNDS WITH ANTI-AGING ACTIVITIES” (priority 2011, published 2014).

Legend:
VEGF = assay: Inflammation induced VEGF synthesis in cultured dermal fibroblasts; format: cell-based, human; details: inflammatory inducer PMA (FIG. 10)
Description: MMP-inhibitory activity for compounds of the invention was also assessed on human dermal fibroblasts. Dermal fibroblasts were cultured in Dulbecco's Modified Eagle Medium (DMEM) (Invitrogen) with 10% EBS (ex. Invitrogen) and 1% Pencillin/Streptavidin (ex. Invitrogen). To induce inflammation in the cells, PMA (phorbol myristate acetate) (ex. Sigma) was used at a concentration of 10 nM. […] The cells were stimulated for 24 h and the culture supernatant was collected and stored at −20° C. until further analysis.
(§1) Fluorokine MultiAnalyte Profiling (xMAP) using the BioPlex (ex. Biorad) dual laser flow-based sorting and detection analyzers manufactured by Luminex corporation (Luminex, Austin, Tex.) was employed to measure levels of MMP in conditioned media samples of stimulated dermal fibroblasts. The technology incorporated polystyrene microspheres dyed internally with differing ratios of two spectrally distinct fluorophores to create a family of different spectrally addressed bead sets. The bead utilized in this study was conjugated with a biotinylated capture antibody specific for a unique MMPs, The assay was performed without antecedent serum depletion. Results were compared with medium from cells treated with vehicle only (DMSO). The assays utilized a 96-well microplate format and were processed according to the manufacturer's protocol, including generation of a standard curve for each target prepared in background assay diluents. Values that fell within the linear range of the calibration assay were accepted. Samples were analyzed using the Bio-Plex suspension array system and Bio-Plex Manager software 4.0 (Bio-Rad Laboratories, Hercules, Calif.). Quantities were determined by comparison to standard curves obtained for the different MMP.
Cell culture and cytokine analysis was carried out on human dermal fibroblasts as described in Example 3.1. The methodology was adapted in order analyze VEGF production.

Keratin 1/10 = Keratin 1/10 production in human normal keratinocytes; format: cell-based; details: for synthesis of Keratin 1/10: human normal keratinocytes (FIG. 15)
Description: Keratinocytes were cultured in commercially available keratinocyte medium M154 (Cascade Biologics/Invitrogen) # M154500 with a final calcium […]. Supplements were added meeting following final concentrations of growth factors; bovine pituitary extract (BPE), 0.2% v/v·bovine insulin, 5 μg/ml·hydrocortisone, 0.18 μg/ml·bovine transferrin, 5 μg/ml·human epidermal growth factor, 0.2 ng/ml.
Medium was changed every other day. Cells were grown to 80% confluence prior stimulation with compounds. Experiments were performed in 24-well plates. The cells were treated with individual compounds of the invention for 6 days. After 3 days the medium was refreshed. A source of calcium ions was used as a positive control. After 6 days tissue culture medium was stored in −20° C. until analysis.
Cells were cultured as described in Example 5.1. and the methodology described in Example 3.1 was adapted in order analyze keratin 1/10 production.

GM-CSF = GM-CSF production in PMA-stimulated human dermal fibroblasts; format: cell-based; details: PMA 10 nM (FIG. 8)
Description: Cell Cultures were Prepared According to Example 3.1
To induce inflammation in the cells PMA (phorbol myristate acetate) (ex. Sigma) was used at a concentration of 10 nM. […] The cells were stimulated for 24 h and the culture supernatant was collected and stored at −20° C. until further analysis.
Experimental method as outlined in Example 3.1 was modified in order to analyze GM-CSGF levels in human dermals fibroblasts stimulated with all-trans retinoic acid, retinol, arachidonic acid, β-aescin, and […] (ethyl ester) at a range of concentrations. Experiments were performed in duplicates.

[1] = tested on: arachidonate 5-lipoxygenase (ALOX5); assay: Affymetrix gene array on skin explants, ALOX5; format: cell-based, human; details: topical, 24 hours
Text: Subcutaneous fat from full thickness skin, obtained from surgical waste material from breast reduction procedures, was removed with a scalpel. Three healthy Caucasian female donors were used for this study. The female donors differed from those of the skin-treatment study outlined previously 8 mm punch biopsies were taken from the skin (and these biopsies are now referred to as skin explants). Skin explants were put on Milipore cell culture inserts (12 mm diameter). Inserts containing skin explants were put in 6-well plates (one insert/well) and 1 mL of supplemented keratinocyte medium (ex Cascade Biologics) was added to each well. A tretinoin-containing cream (Aberela® ex. Janssen): 0.05% tretinoin in the cream, was applied topically to each explant (5 μL/cm^2) using a positive displacement pipette. A placebo cream without tretinoin was used as a control. The skin explants were incubated with tretinoin for 24 hours at 37° C. in 5% CO2-humidified air.
RNA concentration was measured with ND-1000 spectrophotometer (ex. NanoDrop Technologies) and RNA quality was evaluated using the Agilent 2100 bioanalyzer system (ex. Agilent Technologies). 250 nanograms of total RNA from each skin or skin explant sample was used to prepare biotinylated fragmented cRNA according to the GeneChip® 3′IVT Express Kit Manual (PN702646 Rev 1, ex. Affymetrix Inc.). Affymetrix GeneChip® expression arrays (Human Genome U133 Plus 2.0) were hybridized for 16 hours in a 45° C. incubator, rotated at 60 rpm. According to the GeneChip Expression Wash, Stain and Scan Manual (PN 702731 Rev 2, ex. Affymetrix Inc.) the arrays were washed and stained using the Fluidics Station 450 and scanned using the GeneChip® Scanner 3000 7G.
Analysis of the gene expression data was carried out in the statistical computing language R (http://www.r-project.org) using packages available from the Bioconductor project (www.bioconductor.org). The raw data was normalized using the robust multi-array average (RMA) method. In order to search for differentially expressed genes between the X samples and the Y samples group an empirical Bayes moderated t-test was then applied using the ‘limma’ package.
Skin explants were obtained as detailed in Example 3.1.

MMP1 = assay: PMA inflammation induced MMP1 production in human dermal fibroblasts; format: cell-based; details: for inhibition of PMA inflammation induced MMP1 production: human dermal fibroblasts, PMA 10 nM, 24 h (FIG. 3); for MMP production: summary of FIGS. 2, 3 and 4 (UV skin explants and PMA dermal fibroblasts)
Description: as §1, with “MMP-inhibitory activity for compounds of the invention was also assessed on human dermal fibroblasts. Dermal fibroblasts were cultured in Dulbecco's Modified Eagle Medium (DMEM) (Invitrogen) with 10% EBS (ex. Invitrogen) and 1% Pencillin/Streptavidin (ex. Invitrogen). To induce inflammation in the cells, PMA (phorbol myristate acetate) (ex. Sigma) was used at a concentration of 10 nM. […] The cells were stimulated for 24 h and the culture supernatant was collected and stored at −20° C. until further analysis. Fluorokine” for “Fluorokine”

For `C=C1C[C@]23C[C@@]1(O)CC[C@H]2[C@@]12C=C[C@H](O)[C@@](C)(C(=O)O1)[C@@H]2[C@@H]3C(=O)O` [Gibberellic acid, (3S,3aS,4S,4aS,7S,9aR,9bR,12S)-7,12-dihydroxy-3-methyl-6-methylene-2-oxoperhydro-4a,7-methano-9b,3-propenoazuleno[1,2-b]furan-4-carboxylic acid], the “inflammatory induced VEGF synthesis” value (VEGF) was “reduce inflammatory induced VEGF synthesis”, the “synthesis of Keratin 1/10” value (Keratin 1/10; 1.2 microM) was “significant increase in the synthesis of Keratin 1/10” and the GM-CSF production (GM-CSF) was “inhibition of GM-CSF production”. The ALOX5 gene expression [1] was −1.01 log 2−ratio, the “inhibition of PMA inflammation induced MMP1 production” value (MMP1) was “inhibition” and the MMP production (MMP1) was “ability to inhibit MMP production”.
In the case of `CC(=O)N[C@@H](CC(=O)O)C(=O)O` [N-Acetyl aspartic acid, (2S)-2-Acetamidobutanedioic acid], the “inflammatory induced VEGF synthesis” value (VEGF) is reported as “reduce inflammatory induced VEGF synthesis”, the “production of Keratin 1/10” value (Keratin 1/10; concentration not given) is reported as “stimulate production of Keratin 1/10” and the GM-CSF production (GM-CSF) is reported as “inhibition of GM-CSF production”. The ALOX5 gene expression [1] was 0.15 log 2−ratio, the “inhibition of PMA inflammation induced MMP1 production” value (MMP1) was “inhibition” and the MMP production (MMP1) was “ability to inhibit MMP production”.
With `O=C1C[C@@H](c2ccc(O)cc2)Oc2cc(O)cc(O)c21` [Naringenin, (S)-2,3-Dihydro-5,7-dihydroxy-2-(4-hydroxyphenyl)-4H-1-benzopyran-4-one] the “inflammatory induced VEGF synthesis” value (VEGF) was “reduce inflammatory induced VEGF synthesis”, the “synthesis of Keratin 1/10” value (Keratin 1/10; 150 microM) was “significant increase in the synthesis of Keratin 1/10” and the GM-CSF production (GM-CSF) was “inhibition of GM-CSF production”. The ALOX5 gene expression [1] was −0.69 log 2−ratio, the “inhibition of PMA inflammation induced MMP1 production” value (MMP1) was “inhibition” and the MMP production (MMP1) was “ability to inhibit MMP production”.
